# Assay results taken from patent US9181375B2, “Fluorescent potassium ion sensors” (ARIZONA BOARD OF REGENTS, A BODY CORPORATE OF THE STATE OF …, priority 2011, dated 2015).
# What was measured:
# U87MG cells [1] = assay: Intracellular K+ influx monitored with 2(a), confocal fluorescence, ImageJ; type: cell-based, human; details: isoproterenol 5 μM with 20 mM KCl in medium, 40 minutes, 37° C.; 2(a) 4 μM
# Experimental: 2(a) can also be used to monitor K^+ influx through stimuli. […] The influx stimulator (isoproterenol in KCl-containing PBS buffer) was added. Final concentrations of the added isoproterenol and KCl in the cell culture medium were 5 μM and 20 mM, respectively.
# [2] = Fluorescence titration of 2(a) with KCl in HEPES buffer, Benesi-Hildebrand plot; type: binding; details: HEPES pH 7.2
# Experimental: (§1) To determine sensor responses, 50 μL of 2(a) (Example 10) was dissolved in DMSO resulting in a concentration of 200 μM which was then added into 2 mL of HEPES (10 mM, pH 7.2) buffer. […] Different metal ion concentrations were added into the solution for studying 2(a)'s responses. Although the reaction of the compound and the metal ion was rapid (usually within seconds), the spectra was measured after 2 minutes to ensure stability. 2(a)/metal ion complexes were excited at 561 nm and emissions were collected from 600 to 750 nm.
# 2(a) is constructed using strong electron-donating (aniline) and electron-withdrawing (TCF) groups, yielding an absorption maximum at 560 nm. The extinction coefficient (s) at 560 nm is 3.84×10^4 M^−1 cm^−1. […] Upon addition of K^+, the fluorescence intensity of 2(a) increases by ca. 4 and 50 fold at K^+ concentrations of 140 mM and 1400 mM (FIGS. 8A and 8B), respectively, resulting in corresponding η of 0.52% and 5.6%. Kd was determined by the Benesi-Hildebrand equation: F0/(F0−F)=F0/(F0−Fcomplex)+F0/(F0−Fcomplex)×Kd×1/[M] (1) where F0 is the integrated fluorescence intensity of a free sensor, F is the observed integrated fluorescence intensity, Fcomplex is the emission of the ligand-metal ion complex, and [M] is the metal ion concentration. When F0/(F0−F) is plotted against 1/[M], the binding constant is given by the ratio intercept/slope. […]
# [3] = Fluorescence quantum yield against Rhodamine B standard; type: physicochemical
# Experimental: The fluorescence quantum yields (η) of samples in solutions were recorded by using Rhodamine B in ethanol (η=0.65) excited at 540 nm and were calculated according to the following equation:
# [formula] where (ηr) and (ηs) are the fluorescence quantum yields of standards and the samples, respectively. Ar and As are the absorbance of the standards and the measured samples at the excitation wavelength, respectively. Ir and Is are the integrated emission intensities of standards and the samples, respectively. nr and ns are the refractive indices of the corresponding solvents present in the solutions, respectively. The experimental error was approximately 10%.
# [4] = Fluorescence response of sensors to other cations and pH in buffer (selectivity)
# Experimental: as §1
# 2(a) was also tested against physiological concentration levels of the following metal ions: K^+, Na^+, Ca^2+, Mg^2+, Fe^3+, Zn^2+, Mn^2+, and Cu^2+. […] Furthermore, this trend was also present when the concentrations of Na^+, Ca^2+, and Mg^2+ were increased to 140 mM (FIG. 9).
# Na^+ is usually an interference ion to K^+ for the typical K^+ probes including PBFI, CD18, C18, and MCC.
# U87MG cells [5] = assay: Cytotoxicity by Trypan blue staining; type: cell-based
# Experimental: Cytotoxicity of 2(a) to human glioblastoma U87MG cells was studied using Trypan blue staining. To cell culture medium (100 μL) with eukaryotic cells in a 96 well microplate with 10,000 cells/well that had internalized 2(a) for 2 hours, […] of 0.4% Trypan Blue stain was added and mixed thoroughly with the medium. After standing for 5 min at room temperature (23° C.), the cells were imaged using an optical microscope in bright field mode. Dead cells appeared blue from the Trypan Blue stain, whereas healthy cells appeared transparent as a result of the cell's resistance to stain. The cells were then counted and the ratio of dead cells to live cells was calculated. Each experiment was repeated three times.
# (§2) Cytotoxicity of the sensor 1(a) to cells was studied using Trypan blue staining. After 30 minutes internalization of the sensor with cells, more than 97% cells were viable, showing the non-cytotoxicity of 1(a) to the two cell lines under our experimental conditions.
# E. coli = assay: K+ release from bacteria stimulated by lysozyme, measured with F4 film; type: cell-based, E. coli JM 109; details: lysozyme added to bacteria in 150 mM NaCl buffer pH 7.4, F4 film
# Experimental: (§3) E. coli JM 109 and B. subtilis 168 were cultured overnight in LB medium (Difco®, Becton, Dickinson and Company, Sparks, Md.) by shaking at 180 rpm at 37° C. The concentration of E. coli and B. subtilis in culture was estimated by measuring the optical density at 600 nm (OD600). OD600 value of 1 indicated a concentration of 5.0×10^8 cfu/mL. After the microorganism density was determined, bacterial cells were collected by centrifuge at 2000×g for 20 minutes at room temperature. Then appropriate densities of bacteria were made using fresh buffer (150 mM NaCl, pH 7.4) to achieve the desired initial concentrations for experiments.
# (§4) The F4 film (Example 16) was placed diagonally into quartz cuvettes with 2 mL of bacteria suspension at different densities. […] The potassium ion concentration was calculated from the measured fluorescence ratio (F/F0).
# (§5) F4 film was used for both gram positive (i.e. B. subtilis) and negative (i.e. E. coli) bacteria and lysozyme was used as a model drug to stimulate K^+ efflux from the organisms. […] The washed organisms were resuspended in 2 mL of the potassium-free buffer in quartz cuvettes at a concentration range of 1.5×10^10 to 1.0×10^11 cfu/mL F4 was immersed into the above prepared mixtures, and then lysozyme was added into the cuvettes to stimulate the K^+ efflux, which was monitored through the time dependent fluorescence intensity changes of F4 film. […]
# B. subtilis = assay: as above; type: cell-based, B. subtilis 168; details: lysozyme added to bacteria in 150 mM NaCl buffer pH 7.4, F4 film
# Experimental: as §3, §4, §5
# U87MG cells [6] = assay: Dynamic K+ influx and efflux monitored with 2(a) after nigericin; type: cell-based, human; details: nigericin 20 μM in 20 mM KCl medium
# Experimental: 2(a) was further tested for in-situ observation of dynamic potassium ion influx and then efflux through the changes of fluorescence (FIG. 15) stimulated by an ionophore nigericin. Cells internalized with 4 μM of 2(a) at 37° C. for 10 minutes were washed with 20 mM KCl-containing fresh medium. Nigericin (20 μM at its final concentration) was added in 20 mM KCl-containing medium to help K^+ to across cell membrane. Enhanced fluorescence was immediately observed after the addition of nigericin, indicating potassium ion influx occurred. The potassium influx peaked after 3 minutes with an average of fluorescence increase of 370%. After 3 minutes, potassium efflux was observed by the decrease of the fluorescence. The efflux stabilized after 15 minutes, and the fluorescence intensity after the stabilization was about 25% below that of before the stimulation by nigericin. The ionophore nigericin was used to stimulate K^+ influx for yeast Saccharomyces cerevisiae. It was also reported to be a K^+ efflux stimulator for human colorectal adenocarcinoma HT-29 cells.
# U87MG cells [7] = assay: Intracellular K+ efflux monitored with 1(a), microplate reader; type: cell-based, human; details: cells loaded with 2 μM 1(a); nigericin 5 μM, bumetanide 10 μM, ouabain 10 μM; 2.5 h
# Experimental: (§6) U87MG and CP-A cells were seeded onto 96 well plates at 10,000 cells per well and maintained in 100 μL medium overnight. The following day, the cells were loaded with 1(a) (2 μM) for 20 min, then the excess 1(a) was removed by washing with medium. The test substances were added and the experiment was terminated after 2.5 h by washing the cells with physiological NaCl solution. A microplate reader (Molecular Device, Downingtown, Pa.) was used to read the fluorescence intensities from the intracellular 1(a). 444 nm was used to excite the sensor and the emission was measured at 538 nm. The measured fluorescence intensities were corrected with background fluorescence. Each experiment was repeated in triplicate.
# (§7) The decrease of the fluorescence intensities indicates the efflux of the intracellular potassium ions from the cells.
# CP-A cells [8] = assay: as above; type: cell-based; details: cells loaded with 2 μM 1(a); nigericin 5 μM, bumetanide 10 μM, ouabain 10 μM; 2.5 h
# Experimental: as §6, §7
# CP-A cells [9] = assay: Cytotoxicity by Trypan blue staining; type: cell-based; details: 1(a) internalized for 30 minutes
# Experimental: as §2
# [10] = Fluorescence titration of 1(a) with KCl in HEPES buffer, Benesi-Hildebrand plot; type: binding; details: 10 mM HEPES pH 7.4, excitation 450 nm, emission 525 nm
# Experimental: FIGS. 17A and 17B show the UV-Vis and emission spectral changes upon the interaction of 1(a) with potassium chloride (KCl) in 10 mM HEPES buffer (pH 7.4). […] This fluorescence change was attributed to photo-induced electron transfer. The lone electron pairs of the amino groups in the triazacryptand ligand quench the emission of the fluorophore of the amino-naphthalimide through PET. After interaction with K^+, the lone electron pairs of the ligand were occupied due to the formation of the ligand-K^+ complex. This change restores the emission of the amino-naphthalimide fluorophore. Fluorescence intensity change at 525 nm was plotted again K^+ concentration, which is illustrated in FIG. 17C. Binding constant K could be determined by the fluorescence spectral change using the Benesi-Hildebrand equation as described above.
# Curve fitting of the fluorescence intensity of 1(a) against the reciprocal of the K^+ concentration (1/[K^+]), the Benesi-Hildebrand plot, gives a linear fit (FIG. 17D).
compound,measurement,setting,value
CC(C)NCC(O)c1ccc(O)c(O)c1 (stereo not shown) [isoproterenol],increase of average fluorescence intensity of cells after treatment,U87MG cells [1],33%
COCCOc1cc(/C=C/C2=C(C#N)C(=C(C#N)C#N)OC2(C)C)ccc1N1CCOc2cc(C)ccc2N2CCOCCOCCN(CCOCCOCC2)c2ccc(C)cc2OCC1 [2(a)],fluorescence intensity increase upon addition of K^+,[2]; K^+ 140 mM,ca. 4 fold
same,fluorescence intensity increase upon addition of K^+,[2]; K^+ 1400 mM,~50 fold
same,quantum yield (η),[3]; K^+ 140 mM,0.52%
same,quantum yield (η),[3]; K^+ 1400 mM,5.6%
same,quantum yield (η),"[3]; free form, no K^+",0.11%
same,selectivity to K^+ against other metal ions,"[4]; Na^+, Ca^2+, Mg^2+, Fe^3+, Zn^2+, Mn^2+, Cu^2+ at physiological levels, Na^+, Ca^2+, Mg^2+ also at 140 mM",high selectivity
same,sensitivity to pH,[4]; pH 5 to 8,not sensitive to pH in the range of 5 to 8
same,viable cells,"U87MG cells [5]; human, 2 h",more than 97%
lysozyme,K^+ efflux from bacteria over time,E. coli,K^+ efflux increased slowly over time
same,K^+ efflux from bacteria over time,B. subtilis,"K^+ efflux was very fast, within the first 10 minutes"
CO[C@@H]1C[C@@H](C[C@H]2CC[C@H](C)[C@H]([C@@H](C)C(=O)O)O2)O[C@]2(O[C@](C)([C@H]3CC[C@@](C)([C@@H]4O[C@@H]([C@H]5O[C@@](O)(CO)[C@H](C)C[C@@H]5C)C[C@@H]4C)O3)C[C@H]2C)[C@@H]1C [nigericin],"fluorescence intensity after stabilization, below that before stimulation",U87MG cells [6]; efflux stabilized after 15 minutes,about 25%
same,average fluorescence increase at peak of potassium influx,"U87MG cells [6]; peak after 3 minutes, 2(a) 4 μM",370%
same,"K^+ efflux, decrease of 1(a) fluorescence",U87MG cells [7],not an efficient K^+ efflux stimulator
same,"K^+ efflux, decrease of 1(a) fluorescence",CP-A cells [8],not an efficient K^+ efflux stimulator
C=CCN1C(=O)c2cccc3c(NCCc4ccc(N5CCOc6cc(C)ccc6N6CCOCCOCCN(CCOCCOCC6)c6ccc(C)cc6OCC5)c(OCCOC)c4)ccc(c23)C1=O [1(a)],selectivity against biologically relevant metal ions,"[4]; 1(a), Na^+, Ca^2+, Mg^2+, Fe^3+, Zn^2+, Mn^2+, Cu^2+ at physiological concentrations (FIG. 17E)",high selectivity
same,viable cells,"U87MG cells [5]; 1(a) internalized for 30 minutes, Trypan blue",more than 97%
same,viable cells,CP-A cells [9],more than 97%
same,binding constant (K),[10],0.133 mM⁻¹
